Experimental findings from ChEMBL document CHEMBL5150031, “Targeting osteoarthritis-associated galectins and an induced effector class by a ditopic bifunctional reagent: Impact of its glycan part on binding measured in the tissue context” (Bioorg Med Chem, 2022) are described below.

Calls of active or inactive are those of the source. No cut-off for these calls is given here.

The nature of experiment [1]: Inhibition of biotinylated Galectin-1/3 (unknown origin) preincubated for 30 mins at room temperature followed by incubation at 37 degC for 1 hr by surface-immobilized glycoprotein asialofetuin based solid phase assay. Also noted: species or system Homo sapiens.
The target of experiment [2] is T1, Collagenase 3 (Homo sapiens, UniProt P45452). Nature of the experiment: Inhibition of MMP13 (unknown origin) assessed as reduction in cleavage of colorimetric substrate incubated for 1 hr by colorimetric analysis.
Experiment [3] is filed under the species Homo sapiens. Briefly: Inhibition of biotinylated Galectin-1/3 (unknown origin) preincubated for 30 mins at room temperature followed by incubation at 37 degC for 1 hr by surface-immobilized glycoprotein asialofetuin based solid phase assay relative to lactose. The following applies: time 90.0 min.
Experiment [4] deals with Galectin-3 (Mus musculus) (UniProt P16110). Briefly: Inhibition of biotinylated galectin-3 binding to C57BL/6 mouse kidney cortex at 125 to 500 uM of lactose residue per molecule preincubated for 1 hr followed by incubation with tissue material for overnight by light microsocopy. The class given is tissue-based. The following applies: dose 125-500 µM.
Experiment [5] shares this target. Nature of the experiment: Inhibition of biotinylated galectin-3 binding to C57BL/6 mouse kidney medulla at 125 to 500 uM of lactose residue per molecule preincubated for 1 hr followed by incubation with tissue material for overnight by light microsocopy. The class given is tissue-based. The following applies: Renal medulla, dose 125-500 µM.
Experiment [6] concerns the target Galectin-1 (Mus musculus) (UniProt P16045). Nature of the experiment: Inhibition of biotinylated galectin-1 binding to C57BL/6 mouse kidney at 125 to 500 uM of lactose residue per molecule preincubated for 1 hr followed by incubation with tissue material for overnight by light microsocopy. The class given is tissue-based. The following applies: dose 125-500 µM.

Experiment [7] deals with T1, Collagenase 3. Briefly: Inhibition of MMP13 (unknown origin) assessed as reduction in cleavage of colorimetric substrate by measuring remaining activity at 10 nM incubated for 1 hr by colorimetric analysis relative to control.
Experiment [8] deals with T1, Collagenase 3. Briefly: Inhibition of MMP13 (unknown origin) assessed as reduction in cleavage of colorimetric substrate by measuring remaining activity at 100 nM incubated for 1 hr by colorimetric analysis relative to control.
Experiment [9] has as its target T1, Collagenase 3. Briefly: Inhibition of MMP13 (unknown origin) assessed as reduction in cleavage of colorimetric substrate by measuring remaining activity at 1000 nM incubated for 1 hr by colorimetric analysis relative to control.
Experiment [10] deals with Galectin-1 (Mus musculus) (UniProt P16045). Briefly: Inhibition of Alexa-Fluor-488 conjugated galectin-1 binding to C57BL/6 mouse kidney cortex at 2 mM of sugar preincubated for 1 hr followed by incubation with tissue material for overnight by 2-colour fluorescence microsocopy. The class given is tissue-based.
Experiment [11] has the same target. Nature of the experiment: Inhibition of Alexa-Fluor-488 conjugated galectin-1 binding to C57BL/6 mouse kidney medulla at 2 mM of sugar preincubated for 1 hr followed by incubation with tissue material for overnight by 2-colour fluorescence microsocopy. The class given is tissue-based. The following applies: Renal medulla.
The target of experiment [12] is Galectin-3 (Mus musculus) (UniProt P16110). Briefly: Inhibition of Alexa-Fluor-647 conjugated galectin-3 binding to C57BL/6 mouse kidney cortex at 2 mM of sugar preincubated for 1 hr followed by incubation with tissue material for overnight by 2-colour fluorescence microsocopy. The experiment is classed as tissue-based.
Experiment [13] has the same target. Briefly: Inhibition of Alexa-Fluor-647 conjugated galectin-3 binding to C57BL/6 mouse medulla at 2 mM of sugar preincubated for 1 hr followed by incubation with tissue material for overnight by 2-colour fluorescence microsocopy. The class given is tissue-based. The following applies: Renal medulla.
The species named for experiment [14] is Mus musculus. Nature of the experiment: Inhibition of Alexa-Fluor-488 conjugated galectin-1/Alexa-Fluor-647 conjugated galectin-3 binding to C57BL/6 mouse kidney cortex at 2 mM of sugar preincubated for 1 hr followed by incubation with tissue material for overnight by 2-colour fluorescence microsocopy. The experiment is classed as tissue-based.
For experiment [15], the species on record is Mus musculus. Briefly: Inhibition of Alexa-Fluor-488 conjugated galectin-1/Alexa-Fluor-647 conjugated galectin-3 binding to C57BL/6 mouse medulla at 2 mM of sugar preincubated for 1 hr followed by incubation with tissue material for overnight by 2-colour fluorescence microsocopy. The experiment is classed as tissue-based. The following applies: Renal medulla.

In experiment [16] the target is Galectin-1 (Homo sapiens) (UniProt P09382). Briefly: Inhibition of Alexa-Fluor-488 conjugated galectin-1 binding to human osteoarthritic cartilage at 4 mM of sugar preincubated for 1 hr followed by incubation with tissue material for overnight by 2-colour fluorescence microsocopy. The experiment is classed as tissue-based.
In experiment [17] the target is Galectin-3 (Homo sapiens) (UniProt P17931). Briefly: Inhibition of Alexa-Fluor-647 conjugated galectin-3 binding to human osteoarthritic cartilage at 4 mM of sugar preincubated for 1 hr followed by incubation with tissue material for overnight by 2-colour fluorescence microsocopy. The experiment is classed as tissue-based.
For experiment [18], the species on record is Homo sapiens. Nature of the experiment: Inhibition of Alexa-Fluor-488 conjugated galectin-1/Alexa-Fluor-647 conjugated galectin-3 binding to human osteoarthritic cartilage at 4 mM of sugar preincubated for 1 hr followed by incubation with tissue material for overnight by 2-colour fluorescence microsocopy. The experiment is classed as tissue-based.

Galectin-3 (Mus musculus), sequence (P16110 whole entry): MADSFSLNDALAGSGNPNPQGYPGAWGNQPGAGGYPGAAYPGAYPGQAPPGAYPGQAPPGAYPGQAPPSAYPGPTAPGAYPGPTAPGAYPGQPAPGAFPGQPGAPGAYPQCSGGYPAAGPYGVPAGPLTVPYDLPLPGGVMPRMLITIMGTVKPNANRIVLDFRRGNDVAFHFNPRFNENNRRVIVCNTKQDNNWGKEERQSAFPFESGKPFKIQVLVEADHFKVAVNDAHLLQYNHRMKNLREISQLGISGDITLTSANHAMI
Galectin-1 (Mus musculus), sequence (P16045 whole entry): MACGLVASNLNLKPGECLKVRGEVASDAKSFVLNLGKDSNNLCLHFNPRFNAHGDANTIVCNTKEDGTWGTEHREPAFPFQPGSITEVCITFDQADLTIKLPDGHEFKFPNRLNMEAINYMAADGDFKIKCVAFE
Galectin-1 (Homo sapiens), sequence (P09382 whole entry): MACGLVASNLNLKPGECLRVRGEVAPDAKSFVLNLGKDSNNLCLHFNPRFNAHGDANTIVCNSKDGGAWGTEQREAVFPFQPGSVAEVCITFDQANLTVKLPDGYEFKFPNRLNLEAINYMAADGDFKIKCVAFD
Galectin-3 (Homo sapiens), sequence (P17931 whole entry): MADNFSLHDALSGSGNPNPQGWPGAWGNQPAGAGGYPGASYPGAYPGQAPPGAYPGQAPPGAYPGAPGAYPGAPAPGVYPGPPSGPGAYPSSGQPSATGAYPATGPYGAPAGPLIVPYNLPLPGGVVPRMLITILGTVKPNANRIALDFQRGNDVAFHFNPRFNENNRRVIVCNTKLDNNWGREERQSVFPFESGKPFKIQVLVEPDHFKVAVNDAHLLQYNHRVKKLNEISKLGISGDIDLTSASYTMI

Regarding “LACTOSE, ANHYDROUS [listing 1 of 2 here]”, 1070 µM corresponded to half-maximal inhibition in experiment [1] (IC50).
With `COc1ccc(S(=O)(=O)N(CC(=O)NO)CC(C)C)cc1`, the IC50 in experiment [2] worked out at 0.0052 µM.
In turn, `OC[C@H]1O[C@@H](O[C@H]2[C@H](O)[C@@H](O)[C@H](n3cc(COC[C@@H](OCc4cn([C@@H]5O[C@H](CO)[C@@H](O[C@@H]6O[C@H](CO)[C@H](O)[C@H](O)[C@H]6O)[C@H](O)[C@H]5O)nn4)[C@@H](OCc4cn([C@@H]5O[C@H](CO)[C@@H](O[C@@H]6O[C@H](CO)[C@H](O)[C@H](O)[C@H]6O)[C@H](O)[C@H]5O)nn4)[C@H](OCc4cn([C@@H]5O[C@H](CO)[C@@H](O[C@@H]6O[C@H](CO)[C@H](O)[C@H](O)[C@H]6O)[C@H](O)[C@H]5O)nn4)[C@@H](COCc4ccccc4)OCc4ccccc4)nn3)O[C@@H]2CO)[C@H](O)[C@@H](O)[C@H]1O` gave an IC50 in [1] of 220 µM. In addition, the Ratio in experiment [3] was 4.9. Also, the inhibition result in experiment [4], in experiment [5] and in experiment [6] was “Active” throughout.
With `COc1ccc(S(=O)(=O)N(CCCCCCNC(=O)CCCCC(=O)NCCN(CCC(=O)NCCNC(=O)CCCCC(=O)NCCO[C@@H]2O[C@H](CO)[C@@H](O[C@@H]3O[C@H](CO)[C@H](O)[C@H](O)[C@H]3O)[C@H](O)[C@H]2O)CCC(=O)NCCNC(=O)CCCCC(=O)NCCO[C@@H]2O[C@H](CO)[C@@H](O[C@@H]3O[C@H](CO)[C@H](O)[C@H](O)[C@H]3O)[C@H](O)[C@H]2O)CC(=O)NO)cc1`, the IC50 in [1] came to 200 µM; in [2] it was 0.0013 µM. For the same compound, the Ratio in [3] was 5.4. In addition, the Activity in experiment [7] turned out to be 15.2%; in [8], 3.2%; in experiment [9], 2.7%. Moreover, the inhibition result in experiment [4], in experiment [5], in [6], in [10], in experiment [11] and in experiment [12] was “Active” each time. For the same compound, the inhibition entry in [13], in [14], in experiment [15], in [16], in experiment [17] and in experiment [18] was “Active” throughout.
With “LACTOSE, ANHYDROUS [listing 2 of 2 here]”, the inhibition result in experiment [16], in [17] and in experiment [18] was “Active” in each case.
Turning to `OC[C@H]1O[C@@H](O[C@H]2[C@H](O)[C@@H](O)[C@H](n3cc(COC[C@@H](OCc4cn([C@@H]5O[C@H](CO)[C@@H](O[C@@H]6O[C@H](CO)[C@H](O)[C@H](O)[C@H]6O)[C@H](O)[C@H]5O)nn4)[C@@H](O)[C@H](O)[C@@H](COCc4cn([C@@H]5O[C@H](CO)[C@@H](O[C@@H]6O[C@H](CO)[C@H](O)[C@H](O)[C@H]6O)[C@H](O)[C@H]5O)nn4)OCc4cn([C@@H]5O[C@H](CO)[C@@H](O[C@@H]6O[C@H](CO)[C@H](O)[C@H](O)[C@H]6O)[C@H](O)[C@H]5O)nn4)nn3)O[C@@H]2CO)[C@H](O)[C@@H](O)[C@H]1O`, the IC50 in experiment [1] came to 420 µM. Moreover, in experiment [3], the Ratio was 2.5. Moreover, the inhibition entry in experiment [4], in [5] and in experiment [6] was “Active” throughout.
